As a reminder, the EC50 is the concentration needed to bring the measured effect to its halfway point. As usually defined, the IC50 is the point on the concentration scale where inhibition reaches its midpoint.

One assay has as its system Zika virus. Put plainly: Antiviral activity against Zika virus Z16019 infected in human A549 cells assessed as reduction in viral titer preincubated for 1 hr followed by compound washout and subsequent compound addition without virus and measured after 48 hrs by plaque assay. The settings on record: Zika virus, Z16019, A549; read-out: EC50. The class given is functional, organism-based.
As for `CC(C)=C[C@H]1C[C@]2(C)[C@H](CC[C@@]3(C)[C@H]2CC[C@H]2Cc4c([nH]c5ccccc45)[C@@]23C)O1`, the EC50 stood at 4.2 µM. Still for that read-out and setting: with `C#C[C@@]1(O)[C@H](O)[C@@H](CO)O[C@H]1n1ccc2c(N)ncnc21` the figure was 15 µM; with `O=C(C(=O)c1c[nH]c2ccccc12)c1c[nH]c2ccccc12`, 5 µM. The same measure, in the same setting: the figure for `O=C1c2ccccc2NC1(c1c[nH]c2ccccc12)c1c[nH]c2ccccc12` is 22 µM; for `CC(C)=C[C@H]1C[C@]2(C)[C@H](CC[C@@]3(C)[C@H]2CC[C@H]2CC(=O)c4ccccc4NC(=O)O[C@@]23C)O1` it is 12 µM; for `COC(=O)Cc1c(-c2cc3ccccc3[nH]2)[nH]c2ccccc12` it is 50 µM. As for `CC(=O)OCC(=O)O[C@H]1CC[C@@]2(C)[C@@H](CC[C@H]3Cc4c([nH]c5ccccc45)[C@@]32C)[C@]1(C)CCC=C(C)C`, the EC50 turned out to be 7.5 µM. Still for that read-out and setting: the figure for `O=C(Cc1c[nH]c2ccccc12)OCCc1c[nH]c2ccccc12` is 38 µM; for `CC(=O)C(C)(c1c[nH]c2ccccc12)c1c[nH]c2ccccc12` it is 18 µM. As to `CC(C)=C[C@H]1C[C@]2(C)[C@H](CC[C@@]3(C)[C@H]2CC[C@H]2CC(=O)c4ccccc4NC(=O)[C@@]23C)O1` [ASPORYZIN A], the EC50 stood at 18 µM.

The assay is the same for the next values; noted with them: a549.
`C[S+]([O-])CCC(c1c[nH]c2ccccc12)c1c[nH]c2ccccc12` (stereo unspecified): the EC50 entry is reported as “Not Active”.

For `Nc1ccccc1CC(c1c[nH]c2ccccc12)c1c[nH]c2ccccc12`, the EC50 entry is reported as “Not Active”. The same measure, in the same setting: the entry for `CC(C)=CCC[C@]1(C)[C@@H](O)CC[C@@]2(C)[C@H]1CC[C@H]1Cc3c([nH]c4ccccc34)[C@@]12C` [EMINDOLE SB] is “Not Active”.

Another assay deals with A549. Put plainly: Cytotoxicity against human A549 cells assessed as reduction in cell viability by MTT assay.
Details: not given; call rule not given here
The class given is cell-based. (Formazan colour is commonly taken as a measure of viable cells.)
As to `O=C(c1c[nH]c2ccccc12)c1nccc2c1[nH]c1ccccc12`, the IC50 is 6.3 µM. With `CC(C)=CCC[C@]1(C)[C@@H](O)CC[C@@]2(C)[C@H]1CC[C@H]1Cc3c([nH]c4ccccc34)[C@@]12C` [EMINDOLE SB], the IC50 was determined as 4.4 µM.

For another assay, the system named is MDA-MB-231. Put plainly: Cytotoxicity against human MDA-MB-231 cells assessed as reduction in cell viability by MTT assay. The class given is cell-based.
Details: not given
Take `CC(C)=CCC[C@]1(C)[C@@H](O)CC[C@@]2(C)[C@H]1CC[C@H]1Cc3c([nH]c4ccccc34)[C@@]12C` [EMINDOLE SB]: the IC50 was 3.2 µM.

Source of the values: ChEMBL document CHEMBL4699640, “l-Tryptophan Induces a Marine-Derived Fusarium sp. to Produce Indole Alkaloids with Activity against the Zika Virus” (J Nat Prod, 2020).
